Values after ≈ are worked out from the molar mass of the structure shown.
system: S. aureus; assay: Minimum inhibitory concentrations (MICs) for S. aureus of exemplary compounds (Table 2); assay type: cell-based; conditions: Staphylococcus aureus, minimum inhibitory concentrations for S. aureus; read-out: MICs
How it was run: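 Growth of S. aureus in media with or without compound, by broth microdilution in microtiter trays following NCCLS M7-A5 guidelines. Values are MICs in μg/mL.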

| MIC | Structure (SMILES) |
| --- | --- |
| 4 µg/mL (≈ 8.8 µM) | CC(=O)NC[C@H]1CN(c2ccc(-c3ccc(CNCCN4CCCC4)cc3)c(F)c2)C(=O)O1 [Compound 4259, N-(3-{2-Fluoro-4′-[(2-pyrrolidin-1-yl-ethylamino)-methyl]-biphenyl-4-yl}-2-oxo-oxazolidin-5-(S)-ylmethyl)-acetamide] |
| 1 µg/mL (≈ 1.79 µM) | CC(=O)NC[C@H]1CN(c2ccc(-c3ccc(Cn4cnc5c(NCC(F)(F)F)ncnc54)cc3)c(F)c2)C(=O)O1 [Compound 1104, N-(3-{2-Fluoro-4′-[6-(2,2,2-trifluoro-ethylamino)-purin-9-ylmethyl]-biphenyl-4-yl}-2-oxo-oxazolidin-5-(S)-ylmethyl)-acetamide] |
| 16 µg/mL (≈ 36.4 µM) | CC(=O)NC[C@H]1CN(c2ccc(-c3ccc(CNCc4nnn[nH]4)cc3)c(F)c2)C(=O)O1 [Compound 4282, N-[3-(2-Fluoro-4′-{[(1H-tetrazol-5-ylmethyl)-amino]-methyl}-biphenyl-4-yl)-2-oxo-oxazolidin-5-(S)-ylmethyl]-acetamide] |
| 8 µg/mL (≈ 16.8 µM) | CC(=O)NC[C@H]1CN(c2ccc(-c3ccc(C(C)NC(C)c4ccncc4)cc3)c(F)c2)C(=O)O1 (mixture of isomers) [Compound 4160, N-(3-{2-Fluoro-4′-[1-(R/S)-(1-pyridin-4-(R/S)-yl-ethylamino)-ethyl]-biphenyl-4-yl}-2-oxo-oxazolidin-5-(S)-ylmethyl)-acetamide] |
| 1 µg/mL (≈ 2.28 µM) | CC(=O)NC[C@H]1CN(c2ccc(-c3ccc(CNCc4ccon4)cc3)c(F)c2)C(=O)O1 [Compound 4183, N-[3-(2-Fluoro-4′-{[(isoxazol-3-ylmethyl)-amino]-methyl}-biphenyl-4-yl)-2-oxo-oxazolidin-5-(S)-ylmethyl]-acetamide] |
| 2 µg/mL (≈ 3.85 µM) | CC(=O)NC[C@H]1CN(c2ccc(-c3ccc([C@H](O)CN(Cc4ccccc4)C(C)=O)cc3)c(F)c2)C(=O)O1 [Compound 4250, N-(2-{4′-[5-(S)-(Acetylamino-methyl)-2-oxo-oxazolidin-3-yl]-2′-fluoro-biphenyl-4-yl}-2-(S)-hydroxy-ethyl)-N-benzyl-acetamide] |
| 16 µg/mL (≈ 32.6 µM) | CC(=O)NC[C@H]1CN(c2ccc(-c3ccc([C@@H](NCc4ccncc4)C(N)=O)cc3)c(F)c2)C(=O)O1 [Compound 4184, 2-{4′-[5-(S)-(Acetylamino-methyl)-2-oxo-oxazolidin-3-yl]-2′-fluoro-biphenyl-4-yl}-2-(R)-[(pyridin-4-ylmethyl)-amino]-acetamide] |
| 1 µg/mL (≈ 2.04 µM) | CNc1ncnc2c1ncn2Cc1ccc(-c2ccc(N3C[C@H](CNC(C)=O)OC3=O)cc2F)cc1 [Compound 1106, N-{3-[2-Fluoro-4′-(6-methylamino-purin-9-ylmethyl)-biphenyl-4-yl]-2-oxo-oxazolidin-5-(S)-ylmethyl}-acetamide] |
| 128 µg/mL (≈ 271 µM) | CC(=O)NC[C@H]1CC(c2ccc(-c3ccc(CNC(=O)c4ccccc4C(=O)O)cc3)nc2)=NO1 [Compound 4107, N-(4-{5-[5-(R)-(Acetylamino-methyl)-4,5-(S)-dihydro-isoxazol-3-yl]-pyridin-2-yl}-benzyl)-phthalamic acid] |
| 64 µg/mL (≈ 122 µM) | CC(=O)NC[C@H]1CN(c2ccc(-c3ccc([C@H](CO)NCc4c(C)nc(O)nc4O)cc3)c(F)c2)C(=O)O1 [Compound 4030, N-[3-(4′-{1-(R)-[(2,4-Dihydroxy-6-methyl-pyrimidin-5-ylmethyl)-amino]-2-hydroxy-ethyl}-2-fluoro-biphenyl-4-yl)-2-oxo-oxazolidin-5-(S)-ylmethyl]-acetamide] |
| 2 µg/mL (≈ 3.65 µM) | CC(=O)NC[C@H]1CN(c2ccc(-c3ccc(Cn4cnc5c(NCCCCO)ncnc54)cc3)c(F)c2)C(=O)O1 [Compound 1109, N-(3-{2-Fluoro-4′-[6-(4-hydroxy-butylamino)-purin-9-ylmethyl]-biphenyl-4-yl}-2-oxo-oxazolidin-5-(S)-ylmethyl)-acetamide] |
| 16 µg/mL (≈ 29.6 µM) | CC(=O)NC[C@H]1CN(c2ccc(-c3ccc(CNCC4CCN(C(=O)OC(C)(C)C)C4)cc3)c(F)c2)C(=O)O1 (stereo partly drawn) [Compound 4317, 3-[({4′-[5-(S)-(Acetylamino-methyl)-2-oxo-oxazolidin-3-yl]-2′-fluoro-biphenyl-4-ylmethyl}-amino)-methyl]-pyrrolidine-1-carboxylic acid tert-butyl ester] |
| 1 µg/mL (≈ 1.85 µM) | CC(=O)NC[C@H]1CN(c2ccc(-c3ccc(CNc4nc(CNC(=O)[C@H](C)N)ns4)cc3)c(F)c2)C(=O)O1 [Compound 2013, N-[5-({4′[5-(S)-(Acetylamino-methyl)-2-oxo-oxazolidin-3-yl]-2′-fluoro-biphenyl-4-ylmethyl}-amino)-[1,2,4]thiadiazol-3-ylmethyl]-2-(S)-amino-propionamide] |
| 16 µg/mL (≈ 32.1 µM) | CC(=O)NC[C@H]1CN(c2ccc(-c3ccc(S(=O)(=O)NCc4ccccn4)cc3)c(F)c2)C(=O)O1 [Compound 3006, N-(3-{2-Fluoro-4′-[(pyridin-2-ylmethyl)-sulfamoyl]-biphenyl-4-yl}-2-oxo-oxazolidin-5-(S)-ylmethyl)-acetamide] |
| 0.25 µg/mL (≈ 0.552 µM) | CC(=O)NC[C@H]1CN(c2ccc(-c3ccc(CN(C)Cc4cnn[nH]4)cc3)c(F)c2)C(=O)O1 [Compound 4276, N-[3-(2-Fluoro-4′-{[methyl-(3H-[1,2,3]triazol-4-ylmethyl)-amino]-methyl}-biphenyl-4-yl)-2-oxo-oxazolidin-5-(S)-ylmethyl]-acetamide] |
| 1 µg/mL (≈ 2.36 µM) | CC(=O)NC[C@H]1CN(c2ccc(-c3ccc(Cn4cnc(N)n4)cc3)c(F)c2)C(=O)O1 [Compound 1069, N-{3-[4′-(3-Amino-[1,2,4]triazol-1-ylmethyl)-2-fluoro-biphenyl-4-yl]-2-oxo-oxazolidin-5-(S)-ylmethyl}-acetamide] |
| 0.5 µg/mL (≈ 0.962 µM) | CSc1nc(CNCc2ccc(-c3ccc(N4C[C@H](CNC(C)=O)OC4=O)cc3F)cc2)ccc1C#N [Compound 4128, N-[3-(4′-{[(5-Cyano-6-methylsulfanyl-pyridin-2-ylmethyl)-amino]-methyl}-2-fluoro-biphenyl-4-yl)-2-oxo-oxazolidin-5-(S)-ylmethyl]-acetamide] |
| 2 µg/mL | CC(=O)NC[C@H]1CN(c2ccc(-c3ccc(CN4CCC(C(N)=O)C4)cc3)c(F)c2)C(=O)O1 (mixture of isomers) [Compound 1093, 1-{4′-[5-(S)-(Acetylamino-methyl)-2-oxo-oxazolidin-3-yl]-2′-fluoro-biphenyl-4-ylmethyl}-pyrrolidine-3-(R/S)-carboxylic acid amide] |
| 1 µg/mL (≈ 2.32 µM) | CC(=O)NC[C@H]1CN(c2ccc(-c3ccc(CSCC4CO4)cc3)c(F)c2)C(=O)O1 (stereo partly drawn) [Compound 4226, N-[3-(2-Fluoro-4′-oxiranylmethylsulfanylmethyl-biphenyl-4-yl)-2-oxo-oxazolidin-5-(S)-ylmethyl]-acetamide] |
| 2 µg/mL (≈ 4.15 µM) | CC(=O)NC[C@H]1CN(c2ccc(-c3ccc(CNCc4ccc(Cl)cc4)cc3)c(F)c2)C(=O)O1 [Compound 4063, N-(3-{4′-[(4-Chloro-benzylamino)-methyl]-2-fluoro-biphenyl-4-yl}-2-oxo-oxazolidin-5-(S)-ylmethyl)-acetamide] |
| 16 µg/mL (≈ 37.6 µM) | CC(=O)NC[C@H]1CN(c2ccc(-c3ccc(CNC(=O)C4CC4)cc3)c(F)c2)C(=O)O1 [Compound 4319, Cyclopropanecarboxylic acid {4′-[5-(S)-(acetylamino-methyl)-2-oxo-oxazolidin-3-yl]-2′-fluoro-biphenyl-4-ylmethyl}-amide] |
| 1 µg/mL (≈ 2.08 µM) | CC(=O)NC[C@H]1CN(c2ccc(-c3ccc(CNCc4c[nH]c(=O)[nH]c4=O)cc3)c(F)c2)C(=O)O1 [Compound 4101, N-[3-(4′-{[(2,4-Dioxo-1,2,3,4-tetrahydro-pyrimidin-5-ylmethyl)-amino]-methyl}-2-fluoro-biphenyl-4-yl)-2-oxo-oxazolidin-5-(S)-ylmethyl]-acetamide] |
| 4 µg/mL (≈ 8.63 µM) | CC(=O)NC[C@H]1CN(c2ccc(-c3ccc(CNCc4cnccc4N)cc3)c(F)c2)C(=O)O1 [Compound 4135, N-[3-(4′-{[(4-Amino-pyridin-3-ylmethyl)-amino]-methyl}-2-fluoro-biphenyl-4-yl)-2-oxo-oxazolidin-5-(S)-ylmethyl]-acetamide] |
| 1 µg/mL (≈ 2.2 µM) | CC(=O)NC[C@H]1CN(c2ccc(-c3ccc(CSc4ncnn4C)cc3)c(F)c2)C(=O)O1 [Compound 2033, N-{3-[2-Fluoro-4′-(2-methyl-2H-[1,2,4]triazol-3-ylsulfanylmethyl)-biphenyl-4-yl]-2-oxo-oxazolidin-5-(S)-ylmethyl}-acetamide] |
| 4 µg/mL (≈ 8.29 µM) | CC(=O)NC[C@H]1CN(c2ccc(-c3ccc(CNCCc4scnc4C)cc3)c(F)c2)C(=O)O1 [Compound 4096, N-[3-(2-Fluoro-4′-{[2-(4-methyl-thiazol-5-yl)-ethylamino]-methyl}-biphenyl-4-yl)-2-oxo-oxazolidin-5-(S)-ylmethyl]-acetamide] |
| 1 µg/mL (≈ 2.14 µM) | CC(=O)NC[C@H]1CN(c2ccc(-c3ccc(C[S+]([O-])c4ccccn4)cc3)c(F)c2)C(=O)O1 (stereo partly drawn) [Compound 2023, N-{3-[2-Fluoro-4′-(pyridine-2-sulfinylmethyl)-biphenyl-4-yl]-2-oxo-oxazolidin-5-(S)-ylmethyl}-acetamide] |
| 1 µg/mL (≈ 2.36 µM) | CC(=O)NC[C@H]1CN(c2ccc(-c3ccc(Cn4ccc(N)n4)cc3)c(F)c2)C(=O)O1 [Compound 1053, N-{3-[4′-(3-Amino-pyrazol-1-ylmethyl)-2-fluoro-biphenyl-4-yl]-2-oxo-oxazolidin-5-(S)-ylmethyl}-acetamide] |
| 8 µg/mL (≈ 18.7 µM) | CC(=O)NC[C@H]1CN(c2ccc(-c3ccc([C@H](O)CN4CCC4)cc3)c(F)c2)C(=O)O1 [Compound 1062, N-{3-[4′-(2-Azetidin-1-yl-1-(S)-hydroxy-ethyl)-2-fluoro-biphenyl-4-yl]-2-oxo-oxazolidin-5-(S)-ylmethyl}-acetamide] |
| 0.5 µg/mL (≈ 1.1 µM) | CC(=O)NC[C@H]1CN(c2ccc(-c3ccc(CNCc4cccs4)cc3)c(F)c2)C(=O)O1 [Compound 4137, N-[3-(2-Fluoro-4′-{[(thiophen-2-ylmethyl)-amino]-methyl}-biphenyl-4-yl)-2-oxo-oxazolidin-5-(S)-ylmethyl]-acetamide] |

same assay, conditions: minimum inhibitory concentrations for S. aureus

| MICs | Structure (SMILES) |
| --- | --- |
| 8 µg/mL | CC(=O)NC[C@H]1CN(c2ccc(-c3ccc(C(CO)NCc4csnn4)cc3)c(F)c2)C(=O)O1 (mixture of isomers) [Compound 4172, N-[3-(2-Fluoro-4′-{2-hydroxy-1-[([1,2,3]thiadiazol-4-(R/S)-ylmethyl)-amino]-ethyl}-biphenyl-4-yl)-2-oxo-oxazolidin-5-(S)-ylmethyl]-acetamide] |

Reference: patent US10471046B2, “Method for treating, preventing, or reducing the risk of skin infection” (Melinta Subsidiary Corp., priority 2014, dated 2019)
